This is an account of results in patent publication US10766888B1, “HMOX1 inducers” (Mitobridge Inc., priority 2019, dated 2020).

Like-named read-outs stand apart in the source and are kept apart here.

The nature of series [1]: PK study: plasma and brain levels in mice. Format: in vivo, C57BL/6 mice. The following applies: mouse, plasma, measured in a previous study.
The target in another series is hERG channel (Homo sapiens, UniProt Q12809). Description: hERG manual patch clamp assay. Format: cell-based. To be noted: HEK 293 cells stably expressing hERG channel, pH 7.35, 10 μM compound. In short, it runs like this:
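Whole-cell manual patch clamp on doxycycline-induced HEK293 cells stably expressing hERG. Tail current measured at −50 mV after a 4.8 s step to +30 mV from −90 mV holding; test compounds at 10 μM, 0.1% DMSO, vs vehicle baseline. Percent inhibition from peak tail current, […].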

Series [2] in a line: PD study: compound concentration in mouse liver. Format: in vivo, C57BL/6 mice. The following applies: male, C57BL/6, mouse, 50 mg/kg, 50 mpk oral. As for the experimental part: 9-10 week old male C57BL/6 mice were dosed orally with 50 mg/kg of vehicle or compound formulated in 5% w/v tween 80 and 0.5% methyl cellulose. At indicated time points (3 and 6 hours or or 4 and 8 hours post-dosing as shown in the results below), whole blood was collected, animal was sacrificed and liver was collected. Blood samples were transferred to vials containing 4 μL of 10% w/v EDTA, centrifuged at 6000 rpm for 8 in below 10° C. to obtain plasma. Samples were frozen and later processed for HMOX1 protein levels as indicated below: […]

For series [3], the system named is Human Heme Oxygenase-1 (HMOX-1). Description: ELISA assay to measure human heme oxygenase-1 (HMOX-1) in HepG2 lysate. The series is classed as cell-based. The essentials:
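HO-1 protein levels were read as fold change over DMSO-treated cells, with EC50 derived from these values. Quantitation used a chemiluminescent streptavidin-HRP capture ELISA, calibrated with an HO-1 standard series starting at 20 ng/ml, run at 20 °C. Samples were HepG2 lysates made with Triton X100/EDTA buffer and diluted 1:20.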
On the technique in general: In an ELISA, binding on a coated surface is turned into a signal by an enzyme label.

Sequence of hERG channel (Q12809 whole entry): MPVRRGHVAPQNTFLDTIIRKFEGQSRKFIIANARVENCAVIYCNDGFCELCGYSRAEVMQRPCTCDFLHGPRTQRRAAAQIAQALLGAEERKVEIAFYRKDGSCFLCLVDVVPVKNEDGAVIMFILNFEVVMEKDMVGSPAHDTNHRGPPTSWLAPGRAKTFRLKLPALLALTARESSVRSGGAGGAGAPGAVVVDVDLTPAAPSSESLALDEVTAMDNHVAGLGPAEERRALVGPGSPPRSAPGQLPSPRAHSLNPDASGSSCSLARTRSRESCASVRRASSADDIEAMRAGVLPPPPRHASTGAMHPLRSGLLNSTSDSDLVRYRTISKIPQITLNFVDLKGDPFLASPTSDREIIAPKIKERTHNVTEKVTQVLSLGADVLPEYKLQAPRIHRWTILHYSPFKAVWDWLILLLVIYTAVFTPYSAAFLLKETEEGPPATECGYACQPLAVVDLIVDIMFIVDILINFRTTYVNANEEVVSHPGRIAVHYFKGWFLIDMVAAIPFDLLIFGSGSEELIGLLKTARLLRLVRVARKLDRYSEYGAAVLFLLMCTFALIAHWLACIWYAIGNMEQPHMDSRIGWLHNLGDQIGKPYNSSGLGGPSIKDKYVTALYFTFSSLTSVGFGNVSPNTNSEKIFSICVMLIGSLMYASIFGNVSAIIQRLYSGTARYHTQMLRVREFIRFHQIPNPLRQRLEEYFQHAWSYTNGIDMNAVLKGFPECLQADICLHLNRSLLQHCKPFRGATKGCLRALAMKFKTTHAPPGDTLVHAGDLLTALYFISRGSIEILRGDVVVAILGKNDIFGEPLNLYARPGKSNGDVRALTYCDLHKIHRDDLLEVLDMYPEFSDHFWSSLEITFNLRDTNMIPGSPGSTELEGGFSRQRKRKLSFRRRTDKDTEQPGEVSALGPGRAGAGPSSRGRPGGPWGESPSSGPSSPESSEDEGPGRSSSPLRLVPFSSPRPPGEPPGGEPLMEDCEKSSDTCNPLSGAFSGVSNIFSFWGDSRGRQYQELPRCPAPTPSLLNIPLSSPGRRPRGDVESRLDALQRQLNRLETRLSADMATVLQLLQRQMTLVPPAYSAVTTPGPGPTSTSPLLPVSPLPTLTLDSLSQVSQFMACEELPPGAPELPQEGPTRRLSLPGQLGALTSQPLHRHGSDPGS

In the case of `Cn1c(Nc2nc3ccc(OC(F)(F)F)cc3s2)nc2cc(C(=O)NCCOCCO)ccc21` [Comparator 1, 1-methyl-2-(6-trifluoromethoxy-benzothiazol-2-ylamino)-1H-benzoimidazole-5-carboxylic acid [2-(2-hydroxy-ethoxy)-ethyl]-amide, reference compound], the concentration at 1 h in series [1] (1 hr) came to 2070 ± 318 ng/mL. The molecule further displayed a concentration at 4 h in series [1] (4 hr) of 288 ± 124 ng/mL. The inhibition at 10 µM at hERG channel came to 66%. Further, the concentration at 3 h in series [2] (3 h, read-out: Liver Conc uM (3 h)) was 12.2 µM. For the same molecule, in series [2] (6 h, read-out: Liver Conc uM (6 h)), the concentration at 6 h worked out at 1.3 µM. In addition, the half-maximal effective concentration (EC50) in series [3] (HepG2, human HMOX1, as listed in Table 5, read-out: HMOX1 EC50 h) was 900 nM; in series [3] (human HMOX1 protein level in HepG2 lysate, * = average of 2 or more EC50 determinations, NA = Not Active, read-out: EC50), 900 nM.

The inhibition is the share of the control response that was lost under treatment. A high value points to a strong effect. As usually defined, the EC50 is the concentration at which the effect is half-maximal.
